Assay results reported in patent US8383673B2, “Nitridoosmium(VI) complexes for treatment of cancer” (priority 2010, dated 2013).
Where two headings read alike, the source gives them in different places.

Tests used:
[1] = test system: human cervix epitheloid carcinoma (HeLa) cell line; assay: Microculture Tetrazolium Test (MTT assay), cytotoxicity in HeLa cell line; assay type: cell-based
Protocol: The cytotoxicity of the complexes was tested by using human cervix epitheloid carcinoma (HeLa) cell line. In this respect the following method was selected.
The antiproliferation activity of these nitridoosmium compounds was examined on human tumor cell lines in the Microculture Tetrazolium Test (MTT assay) with continuous active substance exposition (24 h for compound 1-7; 48 h for compound 8-11). In this regard, adherent monolayer cultures of HeLa cell line were used.
Culture conditions: The cells were kept in 10 cm^2 culture plates at 37° C. and moist atmosphere (5% CO2). Dulbecco's Modified Eagle's Medium (DMEM) was used as culture medium, with 1% antibiotic-antimycotic and 10% fetal bovine serum.
Test execution: Cell were harvested from culture plates by trypsinization and seeded in 100 μL aliquots in complete culture medium into 96-well microculture plates. Cell density of about 4800 cells/well was chosen in order to ensure exponential growth throughout drug exposure. Cells were allowed to settle for 24 h, followed by the addition of dilutions of the test compounds, which were dissolved in DMSO, in 100 μL/well complete culture medium (<1% DMSO) and incubation for 24 h (compound 1-7) or 48 h (compound 8-11). At the end of exposure, drug solutions were replaced by 100 μL/well DMEM medium with 10% MTT solution in phosphate-buffered saline (5 mg/ml PBS). After incubation for 1 h at 37° C., medium was removed, and the reduced formazan product formed by the metabolic activity of vital cells was dissolved in 100 μL DMSO per well. Optical densities at a wavelength of 570 nm were measured with a microplate reader. The quantity of vital cells was expressed in terms of T/C values by comparison to untreated control microcultures, and IC50 values were calculated from concentration-effect curves by logarithmic interpolation. Evaluation is based on means from at least three independent experiments, each comprising four replicates per concentration level.

[2] = test system: human non-small cell lung cancer cells NCI-H460; details: for tumor weight: twice a week, eight injections, end of study (30 days), Mean ± SD; for inhibition rate (%): tumor growth inhibition by tumor weight vs negative group
Protocol: In vitro cultured human non-small cell lung cancer cells NCI-H460 (from ATCC) were inoculated in nude mice (SPF grade BALB/c-nu male nude mice were purchased from Medical Laboratory Animal Center, Guangdong Province) subcutaneously. The in vivo anti-cancer properties of Os1 (Compound 8) and Os2 (Compound 1) given by intraperitoneal injection were examined by measuring the tumor nodule size of the nude mice.
Each nude mouse was inoculated subcutaneously with 0.2 mL of 7.5×10^6 cells/mL of NCI-H460 cells suspended in culture medium.
Experimental Procedure: 16-18 g male BALB/c-nu nude mice were inoculated subcutaneously 0.2 mL of the NCI-H460 cell suspension (1.5×10^6 cells/rats). The day after inoculation (administration day 1), the nude mice were randomly divided into eight groups and were grouped as follows:
1) positive group (cyclophosphamide 30.0 mg/kg, intraperitoneal injection)
2) negative group (20% PET, intraperitoneal injection)
3) Os1 groups (three treatment groups: 10, 3, 1 mg/kg, intraperitoneal injection)
4) Os2 groups (three treatment groups: 10, 3, 1 mg/kg, intraperitoneal injection)
Mice in each group were received treatment twice a week, with a total number of eight injections. Tumor sizes were measured every 3 days. The treated mice were sacrificed at the end of the study period (30 days) with anatomical separation of tumor nodules. The tumors were weighed and photographed.
The inhibition rate of tumor growth was determined using the following formula: Tumor growth inhibition rate (%)=(1−mean tumor weight of the treatment/mean tumor weight of the negative group)×100%. Tumor volume=longest dimension (mm)×[shortest dimension of the tumor (mm)]^2/2. All measurements were expressed in Mean±SD, using SPSS 10.0 for statistical analysis.

[3] = test system: HeLa cells; assay: MTT assay of Compound 8 with and without cisplatin; assay type: cell-based, human; details: for IC50: MTT, 3 days incubation
Protocol: Compound 8 was tested in the MTT assay to determine its effects with and without cisplatin (see FIG. 1). Assays of cytotoxicity were conducted in 96-well, flat-bottomed microtitre plates. The supplemented culture medium (MEM, 40 μL) with HeLa cells (1×10^5 cells per mL) was added to the wells. Compound 8 was dissolved in the culture medium with 0.5% DMSO with concentrations ranged from 5 μM to 100 μM, and aliquots (10 μL) of the solutions were subsequently added to a set of wells containing the HeLa cells. To examine the synergistic effect of cisplatin, cisplatin was dissolved in the culture medium in order to prepare solutions with concentrations of 0, 0.2, 2 and 6 μM. Aliquots of the cisplatin solutions (50 μL) were added to different sets of the wells containing compound 8 and the HeLa cells. Cells for control experiments were treated with supplemented media with 0.5% DMSO (100 μL). The microtitre plates were incubated at 37° C. in a humidified atmosphere of 5% CO2/95% air for a further 3 days. Assessment of cytotoxicity was carried out by using a modified method of the Mosmann-based 3-(4,5-dimethylthiazol-2-yl)-2,5-diphenyltetrazolium bromide (MTT) assay [T. Mosmann, J. Immunol. Methods 1983, 65, 55]. At the end of the incubation period, MTT solution (10 μL, Cell Proliferation Kit I, Roche) was added into each well and the cultures were incubated further for 4 h at 37° C. in a humidified atmosphere of 5% CO2/95% air. A solubilizing solution (100 μL) was added into wells to lyse the cells and to solubilize the formed formazan complex. The microtitre plates were maintained in a dark, humidified chamber overnight. The formation of formazan was measured by using a microtitre plate reader at 550 nm and the percentages of cell survival were determined. The cytotoxicity was evaluated based on the percentage cell survival in a dose-dependent manner relative to the control.

## [Os^VI(N)(5-Clsalpa)(OH2)Cl] [Compound 2]
[1]; 24 h exposure (compound 1-7)
  IC50: < 25 µM

## [Os^VI(N)(pyrazole)2Cl3] [Compound 8]
[2]; 1 mg/kg i.p., day 14
  Tumor volume/mm^3: 288.12 mm^3
[2]; 1 mg/kg i.p., day 18
  Tumor volume/mm^3: 518.99 mm^3
[2]; 1 mg/kg i.p., day 22
  Tumor volume/mm^3: 801.59 mm^3
[2]; 1 mg/kg i.p., day 26
  Tumor volume/mm^3: 1319.35 mm^3
[2]; 1 mg/kg i.p., day 30
  Tumor volume/mm^3: 1569.69 mm^3
[2]; 1 mg/kg i.p.
  tumor weight: 1.7206 ± 0.4289 g
  inhibition rate (%): 26.73%
[2]; 3 mg/kg i.p., day 14
  Tumor volume/mm^3: 482.89 mm^3
[2]; 3 mg/kg i.p., day 18
  Tumor volume/mm^3: 1043.37 mm^3
[2]; 3 mg/kg i.p., day 22
  Tumor volume/mm^3: 1140.42 mm^3
[2]; 3 mg/kg i.p., day 26
  Tumor volume/mm^3: 1537.35 mm^3
[2]; 3 mg/kg i.p., day 30
  Tumor volume/mm^3: 2262.38 mm^3
[2]; 3 mg/kg i.p.
  tumor weight: 2.0631 ± 1.1693 g
  inhibition rate (%): 12.14%
[2]; 10 mg/kg i.p., day 14
  Tumor volume/mm^3: 534.98 mm^3
[2]; 10 mg/kg i.p., day 18
  Tumor volume/mm^3: 901.64 mm^3
[2]; 10 mg/kg i.p., day 22
  Tumor volume/mm^3: 1422.37 mm^3
[2]; 10 mg/kg i.p., day 26
  Tumor volume/mm^3: 2004.80 mm^3
[2]; 10 mg/kg i.p., day 30
  Tumor volume/mm^3: 2511.59 mm^3
[2]; 10 mg/kg i.p.
  tumor weight: 2.7711 ± 1.0732 g
  inhibition rate (%): −18.01%
[3]
  effectiveness in the MTT assay compared with cisplatin: more effective than cisplatin
[3]; single agent
  IC50: 3.8 µM
[3]; with cisplatin 0.1 μM
  IC50: 4.19 µM
[3]; with cisplatin 1.0 μM
  IC50: 3.38 µM
[3]; with cisplatin 3.0 μM
  IC50: 4.7 µM
[3]; cisplatin 0.1-3.0 μM
  synergistic effect of cisplatin administered with the compound: does not provide any synergistic effect
[1]; 48 h exposure (compound 8-11)
  IC50: < 25 µM

## Cc1cc(C)[nH]n1.Cc1cc(C)[nH]n1.[N]#[Os]([Cl])([Cl])[Cl] [Compound 10, trans-[Os^VI(N)(3,5-dimethylpyrazole)2Cl3]]
[1]; 48 h exposure (compound 8-11)
  IC50: < 100 µM

## [Os^VI(N)(5-MeOsalpa)(OH2)Cl] [Compound 5]
[1]; 24 h exposure (compound 1-7)
  IC50: < 25 µM

## Cc1ccn[nH]1.Cc1ccn[nH]1.[N]#[Os]([Cl])([Cl])[Cl] [Compound 11, trans-[Os^VI(N)(5-methylpyrazole)2Cl3]]
[1]; 48 h exposure (compound 8-11)
  IC50: < 100 µM

## [Os^VI(N)(salpa)(OH2)Cl] [Compound 1]
[2]; 1 mg/kg i.p., day 14
  Tumor volume/mm^3: 380.21 mm^3
[2]; 1 mg/kg i.p., day 18
  Tumor volume/mm^3: 710.06 mm^3
[2]; 1 mg/kg i.p., day 22
  Tumor volume/mm^3: 726.71 mm^3
[2]; 1 mg/kg i.p., day 26
  Tumor volume/mm^3: 1365.02 mm^3
[2]; 1 mg/kg i.p., day 30
  Tumor volume/mm^3: 1110.38 mm^3
[2]; 1 mg/kg i.p.
  tumor weight: 1.2164 ± 0.6547 g
  inhibition rate (%): 48.20%
[2]; 3 mg/kg i.p., day 14
  Tumor volume/mm^3: 420.80 mm^3
[2]; 3 mg/kg i.p., day 18
  Tumor volume/mm^3: 500.45 mm^3
[2]; 3 mg/kg i.p., day 22
  Tumor volume/mm^3: 1011.29 mm^3
[2]; 3 mg/kg i.p., day 26
  Tumor volume/mm^3: 1032.38 mm^3
[2]; 3 mg/kg i.p., day 30
  Tumor volume/mm^3: 1390.62 mm^3
[2]; 3 mg/kg i.p.
  tumor weight: 1.3542 ± 0.5337 g
  inhibition rate (%): 42.33%
[2]; 10 mg/kg i.p., day 14
  Tumor volume/mm^3: 507.33 mm^3
[2]; 10 mg/kg i.p., day 18
  Tumor volume/mm^3: 671.87 mm^3
[2]; 10 mg/kg i.p., day 22
  Tumor volume/mm^3: 1342.17 mm^3
[2]; 10 mg/kg i.p., day 26
  Tumor volume/mm^3: 1601.47 mm^3
[2]; 10 mg/kg i.p., day 30
  Tumor volume/mm^3: 2188.17 mm^3
[2]; 10 mg/kg i.p.
  tumor weight: 2.1535 ± 1.4884 g
  inhibition rate (%): 8.29%
[2]; high-dose group (10 mg/kg i.p.)
  deaths of treated mice: one treated mouse died at day 7 and one died at day 19
[2]; middle dose group (3 mg/kg i.p.)
  deaths of treated mice: one treated mouse died at day 23 and one died at day 26
[1]; 24 h exposure (compound 1-7)
  IC50: < 25 µM

## [Os^VI(N)(5-Brsalpa)(OH2)Cl] [Compound 3]
[1]; 24 h exposure (compound 1-7)
  IC50: < 25 µM

## tran-[Os^VI(N)(indazole)2Cl3] [Compound 9]
[1]; 48 h exposure (compound 8-11)
  IC50: < 25 µM

## N.N.[Cl][Pt][Cl] [Cisplatin, cisplatin, reference compound]
[3]; single agent
  IC50: 7.5 µM

## O=P1(N(CCCl)CCCl)NCCCO1 (centres unmarked) [positive control, cyclophosphamide, reference compound]
[2]; 30 mg/kg i.p., day 14
  Tumor volume/mm^3: 168.16 mm^3
[2]; 30 mg/kg i.p., day 18
  Tumor volume/mm^3: 227.03 mm^3
[2]; 30 mg/kg i.p., day 22
  Tumor volume/mm^3: 318.64 mm^3
[2]; 30 mg/kg i.p., day 26
  Tumor volume/mm^3: 378.31 mm^3
[2]; 30 mg/kg i.p., day 30
  Tumor volume/mm^3: 778.84 mm^3
[2]; 30.0 mg/kg i.p.
  tumor weight: 0.6095 ± 0.5477 g
  inhibition rate (%): 74.04%

## [Os^VI(N)(5-Mesalpa)(OH2)Cl] [Compound 4]
[1]; 24 h exposure (compound 1-7)
  IC50: < 25 µM

## [Os^VI(N)(5-NO2salpa)(OH2)Cl] [Compound 6]
[1]; 24 h exposure (compound 1-7)
  IC50: < 100 µM
